Laboratory results taken from patent publication US7098243B2, “Bicyclic carbohydrates as antiviral bioactives for the treatment of infections caused by the alphaherpesvirinae HSV-1 and HSV-2” (Kemin Pharma Europe B.V.B.A., priority 2003, dated 2006).
Converted amounts (≈) assume the structure as drawn. “Also recorded” adds a separate entry of the source. Where two headings read alike, the source gives them in different places.

Tests used:
[1] = tested on: herpes simplex virus type 1 (HSV-1); assay: Cytopathic effect inhibition assay (CPE) against HSV-1 in HFF cells; conditions: for EC50: Human alphaherpesvirus 1, HFF
[2] = tested on: herpes simplex virus type 2 (HSV-2); assay: Cytopathic effect inhibition assay (CPE) against HSV-2 in HFF cells; conditions: for EC50: Human alphaherpesvirus 2, HFF
[3] = tested on: Cryptococcus neoformans ATCC 90112; assay: Antifungal microdilution screening (Bioscreen C), C. neoformans; type: cell-based; conditions: 48 hours at 35° C., RPMI 1640
[4] = tested on: Trichophyton mentagrophytes ATCC 9533; assay: Antifungal microdilution screening (Bioscreen C), T. mentagrophytes; type: cell-based; conditions: 5 days at 30° C., RPMI 1640
[5] = tested on: Clostridium perfringens ATCC 13124; type: cell-based; conditions: 16 hours at 35° C., Mueller-Hinton broth
[6] = tested on: Candida albicans ATCC 24433; assay: Antifungal microdilution screening (Bioscreen C), C. albicans; type: cell-based; conditions: 24 hours at 35° C., RPMI 1640
[7] = tested on: varicella zoster virus (VZV); assay: Inhibition of viral-induced cytopathicity, VZV in HFF cells; type: cell-based
West Nile virus = assay: Inhibition of viral-induced cytopathicity, West Nile virus in Vero cells; type: cell-based
[8] = tested on: Staphylococcus aureus ATCC29213; assay: Antibacterial microdilution screening (Bioscreen C), S. aureus; type: cell-based; conditions: 16 hours at 35° C., Mueller-Hinton broth
[9] = tested on: Aspergillus fumigatus ATCC 2895; assay: Antifungal microdilution screening (Bioscreen C), A. fumigatus; type: cell-based; conditions: 3 days at 30° C., RPMI 1640
HFF cells = assay: Toxicity (reduction of cell viability) in the HSV, HCMV and VZV screenings; type: cell-based; conditions: reduction of cell viability by 50%
Vero cells = conditions: West Nile screening, reduction of cell viability by 50%
E. coli ATCC 25922 = assay: Antibacterial microdilution screening (Bioscreen C), E. coli; type: cell-based; conditions: 16 hours at 35° C., Mueller-Hinton broth
[10] = tested on: human cytomegalo virus (HCMV); assay: Inhibition of viral-induced cytopathicity, HCMV in HFF cells; type: cell-based
[11] = tested on: Pseudomonas aeruginosa ATCC 27853; assay: Antibacterial microdilution screening (Bioscreen C), P. aeruginosa; type: cell-based; conditions: 16 hours at 35° C., Mueller-Hinton broth
[12] = compounds related to Compound A1 (Table 4)
[13] = viral-induced cytopathicity in HFF cell cultures

In the case of `CCO[C@@H]1[C@@H](OCC)[C@H](Cc2ccccc2)O[C@@H]2CO[C@@H](c3ccccc3)O[C@@H]12`, the EC50 ([1]; read-out: EC50 HSV-1) is reported as > 80 µg/mL and the EC50 ([2]; read-out: EC50 HSV-2) is reported as > 80 µg/mL.

`CO[C@@H]1[C@@H](OC)[C@H](Cc2ccccc2)O[C@@H]2CO[C@@H](c3ccc(Cl)cc3)O[C@@H]12` was tested, and the EC50 ([1]; read-out: EC50 HSV-1) was > 16 µg/mL and the EC50 ([2]; read-out: EC50 HSV-2) was > 16 µg/mL.

For `C=CCO[C@@H]1[C@@H](OCC=C)[C@H](Cc2ccccc2)O[C@@H]2CO[C@@H](c3ccc(Cl)cc3)O[C@@H]12`, the “EC50 HSV-1” value [1, 12] was >16 µg/mL and the “EC50 HSV-2” value [2, 12] was >16 µg/mL.

`Nc1nc2c(ncn2COCCO)c(=O)[nH]1` [ACV, Acyclovir, reference compound] was tested, and the EC50 ([1]; read-out: ACV EC50) was 1.2 µg/mL (≈ 5.33 µM) and the EC50 ([2]; read-out: ACV EC50) was 0.4 µg/mL (≈ 1.78 µM).

`CCO[C@@H]1[C@@H](OCC)[C@H](Cc2ccccc2)O[C@@H]2CO[C@@H](c3ccc(Cl)cc3)O[C@@H]12` [Compound A1] was tested, and the “MIC C. neoformans ATCC 90112” value [3] was >25 µg/mL, the “MIC T. mentagrophytes ATCC 9533” value [4] was >25 µg/mL and the “MIC C. perfringens ATCC 13124” value [5] was >25 µg/mL. The “Compound A1 S.I. (CC50/EC50)” value ([1]; HSV-1) was >33.3, the Compound A1 EC50 ([1]; HSV-1, viral-induced cytopathicity in HFF cell cultures) was 3 µg/mL and the “Activity against HSV-1 (in words)” value ([1]; anti-viral screening) was “strong activity”. The “MIC C. albicans ATCC 24433” value [6] was >25 µg/mL, the “Compound A1 S.I. (CC50/EC50)” value [7] was 0 and the Compound A1 EC50 [7, 13] was > 100 µg/mL. For the same compound, the “Compound A1 S.I. (CC50/EC50)” value (West Nile virus; West Nile) was 0, the Compound A1 EC50 (West Nile virus; West Nile virus, Vero cells) was > 50 µg/mL and the “MIC S. aureus ATCC 29213” value [8] was >25 µg/mL. For the same compound, the “MIC A. fumigatus ATCC 2895” value [9] was >25 µg/mL, the “Compound A1 CC50” value (HFF cells; HCMV screening) was 71.0 µg/mL and the “Compound A1 CC50” value (HFF cells; HSV-1 screening) was >100 µg/mL. For the same compound, the “Compound A1 CC50” value (HFF cells; HSV-2 screening) was >100 µg/mL, the “Compound A1 CC50” value (HFF cells; VZV screening) was >100 µg/mL and the “Compound A1 CC50” value (Vero cells) was 50 µg/mL. The “MIC E. coli ATCC 25922” value (E. coli ATCC 25922) was >25 µg/mL, the “Compound A1 S.I. (CC50/EC50)” value [10] was <3.5 and the Compound A1 EC50 [10, 13] was > 20 µg/mL. For the same compound, the “MIC P. aeruginosa ATCC 27853” value [11] was >25 µg/mL, the “Compound A1 S.I. (CC50/EC50)” value ([2]; HSV-2) was >3333 and the Compound A1 EC50 ([2]; HSV-2, viral-induced cytopathicity in HFF cell cultures) was < 0.03 µg/mL. The “Activity against HSV-2 (in words)” value ([2]; anti-viral screening) was “strong activity; also recorded: superior effect against HSV-2”.

Compound `Nc1nc(O)c2ncn(COC(CO)CO)c2n1` [GCV, ganciclovir, reference compound] has an EC50 ([10]; Human betaherpesvirus 5, HFF, reference product, read-out: GCV EC50) of 0.8 µg/mL (≈ 3.13 µM).
